Assay [1] has as its target T1, CCR3 (Homo sapiens, UniProt P51677).
T1 sequence (P51677 1-355): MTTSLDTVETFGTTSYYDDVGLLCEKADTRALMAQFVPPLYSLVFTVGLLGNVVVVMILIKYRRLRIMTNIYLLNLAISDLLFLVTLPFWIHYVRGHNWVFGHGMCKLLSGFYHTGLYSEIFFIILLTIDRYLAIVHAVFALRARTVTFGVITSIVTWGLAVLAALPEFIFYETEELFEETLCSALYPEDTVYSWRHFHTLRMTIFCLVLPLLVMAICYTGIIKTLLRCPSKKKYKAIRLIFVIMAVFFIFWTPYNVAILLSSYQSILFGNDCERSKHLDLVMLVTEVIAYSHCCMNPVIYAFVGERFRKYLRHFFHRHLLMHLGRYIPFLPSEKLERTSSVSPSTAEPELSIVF
The note with it: from the cited reference; read-out: IC50 (binding); cited from earlier work.

Assay [2] deals with T1, CCR3. The note with it: from the cited reference; read-out: IC50 (chemotaxis); cited from earlier work.
Assay [3] concerns the target T1, CCR3. The note with it: assay not stated; from the cited reference; cited from earlier work.
For assay [4], the system named is refractory wet Age-Related Macular Degeneration (wAMD). The assay is described as follows: clinical case, refractory subject eyes: oral Compound 1 followed by IVT anti-VEGF. It counts as in vivo, human. The conditions noted are these: Compound 1 regimen followed by IVT anti-VEGF, summary. The procedure:
Subjects with refractory wet Age-Related Macular Degeneration (wAMD) were administered 400 mg of Compound 1 CCR antagonist orally twice per day (BID) for a total dose of 800 mg per day. The treatment regimen of Compound 1 lasted 6-weeks. Refractory subjects for this 6-week regimen were described as having persistent subretinal fluid, intraretinal fluid, and absence of improvement in visual acuity after at least 3 consecutive (approximately 4-6 weeks apart) IVT anti-VEGF injections. After the end of a clinical trial consisting of 6-weeks of Compound 1 CCR antagonist treatment, and four weeks of clinical trial follow up with no additional treatment, a subject with heavily pre-treated bilateral disease entered back into normal treatment with their physician and was treated or re-treated with α-VEGF agents per physician judgment guided by standard criteria such as new CNV activity on OCT/angiography OCT (angio-OCT or aOCT) or foveal subretinal fluid (SRF)/intra-retinal fluid (IRF) or PED. Different α-VEGF agents (described in FIGS. 4-5, 9-10, 14-15, 19-21 and Tables D and H) were administered by intra-vitreal injection. […] The central retinal thickness (CRT) was measured automatically (software version 9.6). […] Subretinal and intraretinal fluid presence was assessed manually. […] CNV activity signs such as neovascular vasculature seen on OCT angiography were monitored. […]

The test system of assay [5] is human eotaxin-1 induced eosinophil shape change. The conditions noted are these: human whole blood; read-out: IC50, antagonism of human eotaxin-1 induced eosinophil shape change; cited from earlier work.
The target of assay [6] is T1, CCR3. The note with it: from the cited reference; read-out: IC50 (Calcium influx); cited from earlier work.
Another assay concerns neovascular (wet) AMD. The conditions noted are these: cited from earlier work; for patients with persistent presence of fluid at the retina (OCT or angiography): IVT, after two years of monthly injections.
Assay [7] concerns choroidal neovascularization (CNV) secondary to wAMD. As to the kind of experiment: clinical cases, naïve subject eyes: oral Compound 1 followed by IVT anti-VEGF. It counts as in vivo, human. The method, then: Newly diagnosed subjects with choroidal neovascularization (CNV) secondary to wAMD were administered 400 mg of Compound 1 CCR antagonist orally twice per day (BID) for a total dose of 800 mg per day. The clinical trial treatment regimen included 6 weeks of Compound 1 followed by 4 weeks of safety follow up (weeks 7 and 8 as in office visits and follow up by phone at week 10) with no additional Compound 1 treatment. Subject treatment visits took place once per week where mean changes in BCVA as measured by ETDRS were noted, slit lamp and SD-OCT performed, and intraocular pressure taken. Subjects then returned to routine treatment with their physician post clinical trial and were treated or re-treated with α-VEGF agents per physician judgment guided by standard criteria such as new CNV activity on OCT/angio-OCT (aOCT) or increased foveal subretinal fluid (SRF)/intra-retinal fluid (IRF). Different α-VEGF agents (described in FIGS. 1-3, 6-8, 11-13, and 16-18, 21 and Tables A-C and E-G) were administered by intra-vitreal injection. For aflibercept, 2 mg in 0.05 mL was given per single intravitreal injection. For bevacizumab, 1.25 mg in 0.05 mL was given per single intravitreal injection. For ranibizumab, 0.5 mg in 0.05 mL was given per single intravitreal injection. All OCT tests were performed using REVO NX (Optopol Technology, Poland). A 3-dimensional (3D) scanning protocol covering a 7×7 mm area was used (1024 A-scans×64 tomograms). The central retinal thickness (CRT) was measured automatically (software version 9.6). The detection of the fovea and the accuracy of layers segmentation was checked by the operator. If necessary, the fovea location and the outer retinal boundaries were corrected manually by moving the pointer to the desired position. In such cases, the central macular thickness value was recalculated. Subretinal and intraretinal fluid presence was assessed manually. SRF was defined as a hyporeflective space between retinal pigment epithelium and the sensory retina, whereas IRF as ovoid or round spaces within the retina, with a low reflectivity content. SRF and IRF was distinguished from the outer retinal tubulations (ORTs) and degenerative IRF. The latter were not recognized as a CNV activity sign. CNV activity signs such as neovascular vasculature seen on OCT angiography were monitored. Additionally, lipid exudates and enlargement of RPE elevation were noted.

Where [8] appears, read: Patient Case 3, after 6 weeks oral Compound 1, once ranibizumab, subsequently bevacizumab.

Like-named read-outs stand apart in the source and are kept apart here.

Usually IC50 stands for the concentration that inhibits the measured activity by half. For `C[C@@H](NC(=O)Nc1cccc(-c2nnnn2C)c1)C(O)CN1CCC[C@@H](Cc2ccc(F)cc2)C1` (stereo partly drawn), the concentration for half-maximal inhibition (IC50) on CCR3 [1] was 0.3 nM; at CCR3 [2], 0.038 nM.

In the case of `CN1CCC(c2ccccc2)[C@@H]1COc1cccnc1` (stereo partly drawn), at CCR3 [3], the IC50 is 195 nM.

For the molecule `CC(=O)Nc1ccc2nc(SCC(=O)NC3CCN(Cc4ccc(Cl)c(Cl)c4)CC3)sc2c1`, the IC50 at CCR3 [3] is 1.5 nM.

Take `Cc1cc(C(=O)N(C)C)cc(NC(=O)[C@H]2CCC(=O)N2C2CCN(Cc3ccc(Cl)c(C)c3)CC2)n1` [Compound 1]: in assay [4], the CRT entry was “stabilized” and the “Central retinal pigmental epithelium detachment height” value is given as “reduced”. In addition, the IC50 in assay [5] is 42.5 ± 43.5 nM.

As for `O=C(Nc1ccccc1[N+](=O)[O-])[C@@H]1CCCN1CNC1CC2CCC(C1)N2Cc1ccc2cc(F)ccc2c1` (stereo partly drawn), on CCR3 [3], the concentration for half-maximal inhibition (IC50) is 4.9 nM.

`Cc1ccc[n+]([O-])c1C(=O)N1CCC(=CC(=O)N[C@@H]2CCN(Cc3ccc4cc(F)ccc4c3)C2)CC1`: the 50% inhibitory concentration (IC50) at CCR3 [1] was 3 nM; at CCR3 [6], 5.4 nM; on CCR3 [2] it was 19.9 nM.

As to `CC1=C(CC(CCc2ccc([N+](=O)[O-])cc2)C2CCN(C(=O)c3ccncc3)CC2)C(=O)N(c2ccc(F)cc2)C1C` (stereo not drawn), the IC50 at CCR3 [3] was 12 nM.

For the molecule bevacizumab, the “patients with persistent presence of fluid at the retina (OCT or angiography)” value in the assay with neovascular (wet) AMD is recorded as 67.4%. The “average anti-VEGF doses required per year” value in assay [7] (Patient Case 1, after 6 weeks oral Compound 1) is recorded as 0.667 dose per year; in assay [7] (setting [8]), 1.23 dose per year.

With `O=C(NCC1CCCN(C2CCN(Cc3ccc(Cl)c(Cl)c3)CC2)C1)c1cccc2cccnc12` (stereo not drawn), the IC50 on CCR3 [3] is 30 nM.

With `CCCN1CCC(Cc2ccc(F)cc2)C[C@@H]1CCCNC(=O)Nc1cccc(C(C)=O)c1` (stereo partly drawn), the IC50 at CCR3 [1] was 2 nM; at CCR3 [6], 26 nM; at CCR3 [2], 19 nM.

In the case of `Cc1ccc(C(=O)N[C@@H](Cc2ccc(Cl)cc2)C(=O)N[C@@H](C)C(=O)Nc2ccc(Cl)cc2)c(C)c1`, the IC50 at CCR3 [3] was 3.5 nM.

In the case of aflibercept, the “average anti-VEGF doses required per year” value in assay [7] (Patient Case 2, after 6 weeks oral Compound 1) is reported as 2.36 doses per year.

With `Cc1ccc(C(=O)N2CCC(=CC(=O)N[C@@H]3CCN(Cc4ccc5cc(F)ccc5c4)C3)CC2)nn1`, at CCR3 [6], the 50% inhibitory concentration (IC50) was 6.2 nM.

Take `NC(=O)c1ccc(CNC(=O)NCC2CN(Cc3ccc(Cl)c(Cl)c3)CCO2)cc1` (stereo not drawn): the half-maximal inhibitory concentration (IC50) on CCR3 [3] is 10 nM.

B1: ranibizumab (antibody, chains of the INN, looked up, V domains shown)
VH: EVQLVESGGGLVQPGGSLRLSCAASGYDFTHYGMNWVRQAPGKGLEWVGWINTYTGEPTYAADFKRRFTFSLDTSKSTAYLQMNSLRAEDTAVYYCAKYPYYYGTSHWYFDVWGQGTLVTVSS
VL: DIQLTQSPSSLSASVGDRVTITCSASQDISNYLNWYQQKPGKAPKVLIYFTSSLHSGVPSRFSGSGSGTDFTLTISSLQPEDFATYYCQQYSTVPWTFGQGTKVEIK
modifications: Fab
notes: anti-VEGF antibody, intravitreal injection
As to B1, the “patients with persistent presence of fluid at the retina (OCT or angiography)” value with neovascular (wet) AMD is listed as 51.5%. In the assay on neovascular (wet) AMD (nine months after 3 initial monthly doses, FDA label), the “additional average letter gain with monthly dosing versus less frequent dosing” value is 1-2 letter. In addition, the “loss of visual acuity benefit, dosing every 3 months compared with continued monthly dosing” value with neovascular (wet) AMD (over the next 9 months after 4 monthly doses, FDA label) is about 5 letter. In assay [7] (setting [8]), the “average anti-VEGF doses required per year” value turned out to be 1.23 dose per year.

These data come from patent publication US12692301B2, “Methods of improving retina-associated disease outcome using CCR3-inhibitors” (ALKAHEST INC., priority 2020, dated 2026).
